Assay results published in patent US10968227B2, “Isoquinoline ether compounds as mGluR4 allosteric potentiators, compositions, and methods of treating neurological dysfunction” (Vanderbilt University, priority 2016, dated 2021).

Experiments:
Brain-plasma partition = format: in vivo; details: rat; for unbound brain-to-plasma partition coefficient (Kp,uu): unbound brain-plasma ratio, read-out: Brain-Plasma Kp,ω
3A4 = 3A4 (Homo sapiens (Human), UniProt P08684); assay: CYP 3A4 inhibition; format: in vitro ADME
mGlu4 = mGlu4 (Homo sapiens, UniProt Q14833); assay: mGluR4 potentiation (PAM) fluorescence assay with EC20 agonist; format: cell-based
Description: The disclosed compounds and compositions can be evaluated for their ability to act as a potentiator of metabotropic glutamate receptor activity, in particular mGluR4 activity, by any suitable known methodology known in the art. For example, Chinese Hamster Ovary (CHO) cells transfected with human mGluR4 or HEK cells co-transfected with rat mGuR4 and the G-protein regulated Inwardly Rectifying Potassium channel (GIRK) were plated in clear bottom assay plates for assay in a Hamamatsu FDSS Fluorometric Plate Reader. The cells were loaded with either a Ca2+-sensitive fluorescent dye or the thallium responsive dye and the plates were washed and placed into a suitable kinetic plate reader. For human mGuR4 assays, a fluorescence baseline was established for 3-5 seconds, the disclosed compounds were then added to the cells, and the response in cells was measured. Approximately two and a half minutes later, a concentration of mGuR4 orthosteric agonist (e.g. glutamate or L-AP4) eliciting approximately 20% (EC20) of the maximal agonist response was added to the cells, and the response was measured. Two minutes later, a concentration of mGluR4 agonist (e.g. glutamate or L-AP4) eliciting 80% (EC80) of the maximal agonist response was added to the cells, and the response was measured. […] If the compound acts as a noncompetitive antagonist, an IC50 value is determined by non-linear curve fitting. […]

2D6 = 2D6 (Homo sapiens (Human), UniProt P10635); assay: CYP 2D6 inhibition; format: in vitro ADME
[1] = Human plasma fraction unbound; format: in vitro ADME; details: read-out: Human Fu Plasma
[2] = Rat intrinsic and hepatic clearance; format: in vitro ADME
[3] = Rat plasma fraction unbound; format: in vitro ADME; details: read-out: Rat Fu Plasma
[4] = Human intrinsic and hepatic clearance; format: in vitro ADME
2C9 = 2C9 (Homo sapiens (Human), UniProt P11712); assay: CYP 2C9 inhibition; format: in vitro ADME
[5] = Rat brain fraction unbound; format: in vitro ADME; details: read-out: Rat Fu Brain
1A2 = 1A2 (Homo sapiens (Human), UniProt P05177); assay: CYP 1A2 inhibition; format: in vitro ADME
Chain of 1A2 (P05177 whole entry): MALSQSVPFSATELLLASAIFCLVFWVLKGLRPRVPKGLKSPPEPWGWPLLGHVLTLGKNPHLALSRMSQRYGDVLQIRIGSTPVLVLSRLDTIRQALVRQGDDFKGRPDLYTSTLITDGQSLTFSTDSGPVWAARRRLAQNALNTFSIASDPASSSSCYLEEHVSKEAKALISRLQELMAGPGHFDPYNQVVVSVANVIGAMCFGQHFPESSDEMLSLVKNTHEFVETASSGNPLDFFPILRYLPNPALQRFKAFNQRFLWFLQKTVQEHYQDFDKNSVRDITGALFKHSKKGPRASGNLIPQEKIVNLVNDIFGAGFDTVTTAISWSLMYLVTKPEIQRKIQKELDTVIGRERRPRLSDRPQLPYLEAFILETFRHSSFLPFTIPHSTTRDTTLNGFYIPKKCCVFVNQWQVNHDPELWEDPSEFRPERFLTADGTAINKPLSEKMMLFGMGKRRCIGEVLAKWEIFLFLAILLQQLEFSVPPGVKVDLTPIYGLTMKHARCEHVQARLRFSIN

Chain of mGlu4 (Q14833 33-912 limits assumed): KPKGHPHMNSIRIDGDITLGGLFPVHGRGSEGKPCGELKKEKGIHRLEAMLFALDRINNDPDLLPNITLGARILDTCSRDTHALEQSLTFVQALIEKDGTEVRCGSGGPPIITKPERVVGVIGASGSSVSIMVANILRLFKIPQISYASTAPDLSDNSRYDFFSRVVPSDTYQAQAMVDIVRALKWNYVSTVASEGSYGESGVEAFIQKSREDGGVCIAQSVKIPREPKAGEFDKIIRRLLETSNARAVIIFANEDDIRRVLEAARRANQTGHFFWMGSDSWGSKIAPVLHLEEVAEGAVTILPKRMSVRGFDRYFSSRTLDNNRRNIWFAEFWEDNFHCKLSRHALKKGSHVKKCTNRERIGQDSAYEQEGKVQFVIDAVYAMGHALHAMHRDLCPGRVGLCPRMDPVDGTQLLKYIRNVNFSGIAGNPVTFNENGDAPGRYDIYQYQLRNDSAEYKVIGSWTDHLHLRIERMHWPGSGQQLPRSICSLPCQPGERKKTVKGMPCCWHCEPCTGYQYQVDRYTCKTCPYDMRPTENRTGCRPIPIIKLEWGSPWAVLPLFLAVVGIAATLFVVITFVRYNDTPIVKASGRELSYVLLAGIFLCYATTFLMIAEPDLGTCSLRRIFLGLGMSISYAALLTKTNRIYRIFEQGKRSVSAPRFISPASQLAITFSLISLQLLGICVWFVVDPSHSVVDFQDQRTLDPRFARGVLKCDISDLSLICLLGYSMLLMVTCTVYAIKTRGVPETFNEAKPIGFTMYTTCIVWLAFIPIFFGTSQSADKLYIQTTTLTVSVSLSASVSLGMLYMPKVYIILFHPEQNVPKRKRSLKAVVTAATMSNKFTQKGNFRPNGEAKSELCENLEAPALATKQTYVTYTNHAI
Chain of 3A4 (P08684 whole entry): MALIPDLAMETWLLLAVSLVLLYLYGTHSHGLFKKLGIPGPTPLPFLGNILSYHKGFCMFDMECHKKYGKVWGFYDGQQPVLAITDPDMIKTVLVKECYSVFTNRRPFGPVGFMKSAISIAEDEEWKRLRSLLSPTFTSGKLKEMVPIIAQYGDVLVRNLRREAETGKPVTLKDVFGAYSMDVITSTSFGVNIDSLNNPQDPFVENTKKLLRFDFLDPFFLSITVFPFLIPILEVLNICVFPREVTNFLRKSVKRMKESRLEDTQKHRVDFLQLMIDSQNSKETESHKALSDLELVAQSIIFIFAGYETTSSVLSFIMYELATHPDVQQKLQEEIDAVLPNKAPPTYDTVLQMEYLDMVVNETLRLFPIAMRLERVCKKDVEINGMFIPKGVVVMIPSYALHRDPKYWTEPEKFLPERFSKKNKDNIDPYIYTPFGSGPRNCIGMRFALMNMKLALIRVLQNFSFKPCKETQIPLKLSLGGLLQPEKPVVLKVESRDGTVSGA
Chain of 2D6 (P10635 whole entry): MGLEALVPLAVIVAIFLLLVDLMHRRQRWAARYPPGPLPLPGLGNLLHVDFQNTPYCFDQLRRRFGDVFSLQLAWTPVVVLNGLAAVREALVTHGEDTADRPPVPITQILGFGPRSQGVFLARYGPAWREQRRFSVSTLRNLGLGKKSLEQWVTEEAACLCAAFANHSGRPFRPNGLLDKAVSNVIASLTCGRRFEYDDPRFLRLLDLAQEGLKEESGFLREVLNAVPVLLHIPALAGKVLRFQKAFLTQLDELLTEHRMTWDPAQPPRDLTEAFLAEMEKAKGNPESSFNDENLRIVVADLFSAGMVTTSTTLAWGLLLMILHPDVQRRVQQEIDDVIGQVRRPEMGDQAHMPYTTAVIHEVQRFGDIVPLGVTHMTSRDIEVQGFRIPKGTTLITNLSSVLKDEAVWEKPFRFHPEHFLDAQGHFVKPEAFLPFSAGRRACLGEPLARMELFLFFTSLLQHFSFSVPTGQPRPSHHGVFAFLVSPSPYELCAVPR
Chain of 2C9 (P11712 whole entry): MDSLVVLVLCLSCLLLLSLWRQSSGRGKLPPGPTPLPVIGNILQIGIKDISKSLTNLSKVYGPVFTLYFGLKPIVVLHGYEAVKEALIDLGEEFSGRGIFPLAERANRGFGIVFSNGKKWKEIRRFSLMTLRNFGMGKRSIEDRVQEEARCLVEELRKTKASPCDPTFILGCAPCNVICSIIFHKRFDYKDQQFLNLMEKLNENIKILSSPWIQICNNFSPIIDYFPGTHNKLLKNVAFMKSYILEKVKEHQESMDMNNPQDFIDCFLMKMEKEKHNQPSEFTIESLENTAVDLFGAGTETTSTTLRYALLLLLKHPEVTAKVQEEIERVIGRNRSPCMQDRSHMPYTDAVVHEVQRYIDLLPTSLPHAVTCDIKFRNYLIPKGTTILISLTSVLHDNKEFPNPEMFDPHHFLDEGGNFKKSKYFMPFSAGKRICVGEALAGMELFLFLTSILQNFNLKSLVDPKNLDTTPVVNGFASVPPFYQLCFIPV

Row | Structure (SMILES) | Kp (Brain-plasma partition) | unbound brain-to-plasma partition coefficient (Kp,uu) (Brain-plasma partition) | IC50 (3A4) | EC50 (mGlu4) | IC50 (2D6) | fraction unbound [1] | CLint scaled [2] | Rat CLhep [2] | fraction unbound [3] | CLint scaled [4] | Human CLhep [4] | IC50 (2C9) | fraction unbound [5] | IC50 (1A2)
1 | c1cnc2c(Nc3ccc4c(OCC5CCCCO5)nccc4c3)n[nH]c2c1 (stereo not drawn) [Compound 56] | 1.09 | 0.23 | 22.6 µM | 0.0788 µM | 22.2 µM | 0.007 | 348 mL/min/kg | 58.3 mL/min/kg | 0.014 | 72.3 mL/min/kg | 16.3 mL/min/kg | 3.56 µM | 0.003 | 8.43 µM
2 | c1cc2cc(Nc3n[nH]c4nccnc34)ccc2c(OCC2CCCCO2)n1 (stereo not drawn) [Compound 57] | 0.89 | 0.24 |  | 0.0697 µM |  | 0.011 | 211 mL/min/kg | 52.6 mL/min/kg | 0.015 | 53.8 mL/min/kg | 15.1 mL/min/kg |  | 0.004 | 
